# Measured values reported in patent US20100004222A1, “Amide Derivatives as Ion-Channel Ligands and Pharmaceutical Compositions and Methods of Using the Same” (Renovis, Inc., priority 2006, published 2010).
# pIC50: −log10 of the molar value. Like-named read-outs stand apart in the source and are kept apart here.
# How the values were obtained:
# VR1 [1] = biological target: T1, VR1 (Homo sapiens, UniProt Q8NER1); experiment: Acid stimulation assay (FDSS 6000); format: cell-based; conditions: final assay buffer pH5.8, 15 min pre-incubation
# Experimental: The Acid-induced changes in the intracellular calcium concentration were monitored using FDSS 6000 (Hamamatsu Photonics, Japan), a fluorometric imaging system. The cell suspension in resting buffer (HBSS supplemented with 10 mM HEPES, pH 7.4) was pre-incubated with varying concentrations of the test compounds or resting buffer (buffer control) for 15 minutes at room temperature under dark conditions. The cells were automatically added the stimulating solution (HBSS supplemented with MES, final assay buffer pH5.8) by the FDSS 6000.
# Target sequence in this assay (Q8NER1 whole entry, species assumed): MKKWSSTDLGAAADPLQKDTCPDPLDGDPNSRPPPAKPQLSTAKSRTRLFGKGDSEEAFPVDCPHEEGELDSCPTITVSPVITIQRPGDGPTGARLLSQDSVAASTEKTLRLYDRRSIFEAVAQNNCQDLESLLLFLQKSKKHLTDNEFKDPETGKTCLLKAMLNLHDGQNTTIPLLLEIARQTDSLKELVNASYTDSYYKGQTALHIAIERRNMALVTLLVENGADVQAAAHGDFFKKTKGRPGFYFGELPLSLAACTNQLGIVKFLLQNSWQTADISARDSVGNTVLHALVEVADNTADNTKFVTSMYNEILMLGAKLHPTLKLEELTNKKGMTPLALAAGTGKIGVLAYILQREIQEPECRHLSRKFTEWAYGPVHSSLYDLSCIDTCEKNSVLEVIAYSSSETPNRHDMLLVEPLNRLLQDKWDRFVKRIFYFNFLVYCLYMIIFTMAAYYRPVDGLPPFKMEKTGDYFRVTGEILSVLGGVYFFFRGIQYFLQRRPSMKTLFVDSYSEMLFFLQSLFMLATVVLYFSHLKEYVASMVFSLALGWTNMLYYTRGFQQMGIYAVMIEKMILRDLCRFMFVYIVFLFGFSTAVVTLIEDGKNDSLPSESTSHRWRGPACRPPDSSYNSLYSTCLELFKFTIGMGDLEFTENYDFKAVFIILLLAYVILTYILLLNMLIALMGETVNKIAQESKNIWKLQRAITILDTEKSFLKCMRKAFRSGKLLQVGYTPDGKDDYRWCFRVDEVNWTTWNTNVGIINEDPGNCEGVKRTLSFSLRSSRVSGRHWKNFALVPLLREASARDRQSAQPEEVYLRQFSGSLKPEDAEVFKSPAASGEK
# [2] = Half-life in human liver microsomes (HLM); format: in vitro ADME; conditions: pH 7.4, 1 μM compound, 0.78 mg/mL HLM, 37° C.
# Experimental: Test compounds (1 μM) are incubated with 3.3 mM MgCl2 and 0.78 mg/mL HLM (HL101) in 100 mM potassium phosphate buffer (pH 7.4) at 37° C. on the 96-deep well plate. The reaction mixture is split into two groups, a non-P450 and a P450 group. NADPH is only added to the reaction mixture of the P450 group. An aliquot of samples of P450 group is collected at 0, 10, 30, and 60 min time point, where 0 min time point indicated the time when NADPH is added into the reaction mixture of P450 group. An aliquot of samples of non-P450 group is collected at −10 and 65 min time point. Collected aliquots are extracted with acetonitrile solution containing an internal standard. The precipitated protein is spun down in centrifuge (2000 rpm, 15 min). The compound concentration in supernatant is measured by LC/MS/MS system.
# The half-life value is obtained by plotting the natural logarithm of the peak area ratio of compounds/internal standard versus time. The slope of the line of best fit through the points yields the rate of metabolism (k). This is converted to a half-life value using following equations: […]
# [3] = Pharmacokinetic evaluation following intravenous and oral administration in rats; format: in vivo; conditions: male, Sprague-Dawley, plasma, rat; for bioavailability: AUCinf (PO)/AUCinf (IV), dose normalized, PO 5 mg/kg, read-out: Oral Bioavailability F (%); for clearance: non-compartmental analysis, read-out: In vivo Clearance (converted)
# Experimental: Male Sprague-Dawley rats are acclimatized for at least 24 hours prior to experiment initiation. During acclimation period, all animals receive food and water ad libitum. However, food but not water is removed from the animal's cages at least 12 hours before initiation of the experiment. During the first 3 hours of experimentation, the animals receive only water ad libitum. At least three animal each are tested for intravenous and oral dosage. For intravenous formulation, compounds were dissolved (0.25 to 1 mg/mL) in a mixture of 3% dimethyl sulfoxide, 40% PEG 400 and the rest percentage of 40% Captisol in water (w/v). For oral formulation, compounds of this invention are dissolved (2 mg/mL) in a mixture of 5% of 10% Tween 80 in water (v/v) and 95% of 0.5% methyl cellulose in water (w/v). The animals are weighed before dosing. The determined body weight is used to calculate the dose volume for each animal.
# Dose volume(mL/kg)=1 mg/kg/formulation concentration(mg/mL)
# In instances where the formulation concentrations were less than 0.5 mg/mL, the dosing volume is about 2 mL/kg. PO rats are typically dosed through oral gavage at 2.5 mL/kg to achieve a dose level of 5 mg/kg. For IV dosing, blood samples are collected (using a pre-heparinized syringe) via the jugular vein catheter at 2, 5, 15, 30, 60, 120, 180, 300, 480, and 1440 minutes post dosing. For PO dosing, blood samples are collected (using a pre-heparinized syringe) via the jugular vein catheter before dosing and at 5, 15, 30, 60, 120, 180, 300, 480, and 1440 minutes post dosing. About 250 uL of blood is obtained at each time point from the animal. Equal volumes of 0.9% normal saline are replaced to prevent dehydration. The whole blood samples are maintained on ice until centrifugation. Blood samples are then centrifuged at 14,000 rpm for 10 minutes at 4° C. and the upper plasma layer transferred into a clean vial and stored at −80° C. The resulting plasma samples are then analyzed by liquid chromatography-tandem mass spectrometry. Following the measurement of plasma samples and dosing solutions, plasma concentration-time curve is plotted. Plasma exposure is calculated as the area under the concentration-time curve extrapolated to time infinite (AUCinf). The AUCinf is averaged and the oral bioavailability (% F) for individual animal is calculated as:
# AUCinf (PO)/AUCinf (IV), normalized to their respective dose levels. The % F is reported as the mean % F of all animals dosed orally with the compound of the invention at the specified level (Table 6).
# In vivo clearance in the rat was calculated by conducting a non-compartmental analysis of the pharmacokinetic profile using WinNonlin software.
# VR1 [4] = biological target: T1, VR1; experiment: Calcium uptake assay, low pH (proton) agonist; format: cell-based; set-up: expressed in transfected cells; host or cells: T-REx HEK 293 (Invitrogen), pcDNA5/TO vector
# Target sequence in this assay (Q8NER1 whole entry): as the sequence (Q8NER1 whole entry, species assumed) above
# [5] = HEK293, 0.3 μM compound, low pH (protons) as agonist, HEK 293 cells expressing hVR1, read-out: Low pH % Inhib. @ 0.3 μM
pIC50 (VR1 [1]),half-life at 1 μM [2] [min],bioavailability [3] [%],clearance [3] [mL/min/kg],inhibition at 0.3 µM (VR1 [4]; [5]) [%],Structure (SMILES),"inhibition at 0.3 µM (VR1 [4]; HEK293, read-out: Low pH % Inhib. @ 0.3 μM) [%]"
8.70,135,29,7.68,107,"Cc1cc(/C=C/C(F)(F)F)ccc1C(=O)Nc1cccc2c1CC(O)CC2 (racemic) [Compound 309, (E)-N-(7-hydroxy-5,6,7,8-tetrahydronaphthylen-1-yl)-2-methyl-4-(3,3,3-trifluoroprop-1-enyl)benzamide]",
7.85,,,,106,"Cc1cc(/C=C/C(F)(F)F)ccc1C(=O)Nc1cccc2c1C[C@@H](O)CC2 (single isomer, unassigned) [Compound 313]",
7.64,,,,121,"Cc1cc(/C=C/C(F)(F)F)ccc1C(=O)Nc1cccc2c1C[C@H](O)CC2 (single isomer, unassigned) [Compound 314]",
9.00,36.6,2,67.3,,"Cc1cc(/C=C/C(F)(F)F)ccc1C(=O)Nc1cccc2ccc(O)cc12 [Compound 302, (E)-N-(7-hydroxynaphthalen-1-yl)-2-methyl-4-(3,3,3-trifluoroprop-1-enyl)benzamide]",
7.43,57.6,> 100,11.3,90,"Cc1cc(/C=C/C(F)(F)F)ccc1C(=O)Nc1ccc2cc(C(C)(C)O)cnc2c1 [Compound 303, (E)-N-(3-(2-Hydroxypropan-2-yl)quinolin-7-yl)-2-methyl-4-(3,3,3-trifluoroprop-1-enyl)benzamide]",
8.40,51,> 100,20.6,98,"Cc1cc(/C=C/C(F)(F)F)ccc1C(=O)Nc1ccc2cc(C(C)O)cnc2c1 (stereo not drawn) [Compound 304, (E)-N-(3-(1-hydroxyethyl)quinolin-7-yl)-2-methyl-4-(3,3,3-trifluoroprop-1-enyl)benzamide]",
7.92,16.8,> 100,11.2,105,"Cc1cc(/C=C/C(F)(F)F)ccc1C(=O)Nc1ccc2cc(COCCO)cnc2c1 [Compound 305, (E)-N-(3-((2-Hydroxyethoxy)methyl)quinolin-7-yl)-2-methyl-4-(3,3,3-trifluoroprop-1-enyl)benzamide]",
6.93,,,,75,"Cc1cc(/C=C/C(F)(F)F)ccc1C(=O)Nc1ccc2c(c1)C(O)CCC2 (stereo not drawn) [Compound 307, (E)-N-(8-hydroxy-5,6,7,8-tetrahydronaphthylen-2-yl)-2-methyl-4-(3,3,3-trifluoroprop-1-enyl)benzamide]",
7.96,63,71,12.2,101,"Cc1cc(/C=C/C(F)(F)F)ccc1C(=O)Nc1ccc2cc(C(O)CO)cnc2c1 (stereo not drawn) [Compound 308, (E)-N-(3-(1,2-dihydroxyethyl)quinolin-7-yl)-2-methyl-4-(3,3,3-trifluoroprop-1-enyl)benzamide]",
6.96,,,,71,"Cc1cc(/C=C/C(F)(F)F)ccc1C(=O)Nc1cnc2c(c1)COC(CO)C2 (stereo not drawn) [Compound 310, (E)-N-(7-hydroxymethyl-7,8-dihydro-5H-pyrano[4,3-b]pyridin-3-yl)-2-methyl-4-(3,3,3-trifluoroprop-1-enyl)benzamide]",
6.99,,,,97,Cc1cc(/C=C/C(F)(F)F)ccc1C(=O)Nc1cnc2c(c1)CCCC2 [Compound 312],
7.96,37.2,47,16.5,100,"Cc1cc(/C=C/C(F)(F)F)ccc1C(=O)Nc1cnc2cc(CO)cnc2c1 [Compound 317, (E)-N-(7-(Hydroxymethyl)-1,5-naphthyridin-3-yl)-2-methyl-4-(3,33-trifluoroprop-1-enyl)benzamide]",
6.83,,,,72.3,"Cc1cc(/C=C/C(F)(F)F)ccc1C(=O)Nc1ccc2nccnc2c1 [Compound 325, (E)-2-methyl-N-(Quinoxalin-6-yl)-4-(3,3,3-trifluoroprop-1-enyl)benzamide]",
7.03,,,,88,"Cc1cc(/C=C/C(F)(F)F)ccc1C(=O)Nc1ccc2c(c1)N(S(C)(=O)=O)CC2 [Compound 401, (E)-N-(1-methanesulfonyl-2,3-dihydro-1H-indol-6-yl]-2-methyl-4-(3,3,3-trifluoroprop-1-enyl)benzamide]",
6.83,,,,81,Cc1cc(/C=C/C(F)(F)F)ccc1C(=O)Nc1ccc2sc(C(C)O)nc2c1 (stereo not drawn) [Compound 403],
,,,,14,"Cc1cc(/C=C/C(F)(F)F)ccc1C(=O)Nc1ccc2c(c1)N(C(=O)C(C)(C)C)CC2 [Compound 405, (E)-N-[1-(2,2-dimethyl-propionyl)-2,3-dihydro-1H-indol-6-yl]-2-methyl-4-(3,3,3-trifluoro-prop-1-enyl)benzamide]",
6.49,,,,45,"CCC(=O)N1CCc2ccc(NC(=O)c3ccc(/C=C/C(F)(F)F)cc3C)cc21 [Compound 406, (E)-2-methyl-N-(1-propionylindoline-6-yl]-4-(3,3,3-trifluoro-prop-1-enyl)benzamide]",
7.49,,,,95,"Cc1cc(/C=C/C(F)(F)F)ccc1C(=O)Nc1ccc2c(c1)N(C(=O)CO)CC2 [Compound 407, (E)-N-(1-(2-hydroxyacetyl)-indolin-yl)-2-methyl-4-(3,3,3-trifluoro-Prop-1-enyl)benzamide]",
7.23,,,,103,"Cc1cc(/C=C/C(F)(F)F)ccc1C(=O)Nc1ccc2sc(C(C)(C)O)nc2c1 [Compound 409, (E)-N-(2-(2-hydroxypropan-2-yl)benzo[d]thiazol-5-yl)-2-methyl-4-(3,3,3-trifluoroprop-1-enyl)benzamide]",
6.15,,,,12,"CC(=O)c1nc2cc(NC(=O)c3ccc(/C=C/C(F)(F)F)cc3C)ccc2s1 [Compound 410, (E)-N-(2-acetylbenzo[d]thiazol-5-yl)-2-methyl-4-(3,3,3-trifluoroprop-1-enyl)benzamide]",
7.55,,,,102,"Cc1cc(/C=C/C(F)(F)F)ccc1C(=O)Nc1ccc2oc(CO)nc2c1 [Compound 411, (E)-N-(2-(hydroxymethyl)benzo[d]oxazol-5-yl)-2-methyl-(3,3,3-trifluoroprop-1-enyl)benzamide]",

Structure (SMILES),pIC50 (VR1 [1]),half-life at 1 μM [2] [min],bioavailability [3] [%],clearance [3] [mL/min/kg],inhibition at 0.3 µM (VR1 [4]; [5]) [%],"inhibition at 0.3 µM (VR1 [4]; HEK293, read-out: Low pH % Inhib. @ 0.3 μM) [%]"
"CC(=O)n1ccc2cc(NC(=O)c3ccc(/C=C/C(F)(F)F)cc3C)cnc21 [Compound 408, (E)-N-(1-acetyl-1H-pyrrolo[2,3-b]pyridin-5-yl]-2-methyl-4-(3,3,3-trifluoroprop-1-enyl)benzamide]",7.21,,,,,91
